Assay results published in US12497666B2, “Nucleic acid biomarker and use thereof” (Daiichi Sankyo Co., Ltd., priority 2013, dated 2025).

Legend:
[1] = system: BT474; experiment: HER3 phosphorylation by Western blot, BT474; type: cell-based, human
Excerpt: FIG. 15 depicts Western blots showing that U3-1287 can block […] basal HER3 phosphorylation.

[2] = system: Sum225; experiment: Xenograft tumor growth inhibition by U3-1287, Sum225; type: in vivo; settings: Sum225 xenograft in mice, BC FISH + ve; tumor volumes vs control mice
Description: (§1) The HRG biomarker was identified by analysing the anti-tumor activity of the anti-HER3 antibody U3-1287 on various human cancer xenografts in vivo and analysis of the expression of HRG of these cell lines in vitro. Human tumor cell lines of various indications were grown as xenografts in mice and treated with the […] antibody U3-1287 for several weeks. Inhibition of tumor growth was analysed by comparing the tumor volumes of control mice and mice treated with U3-1287. Human tumor cell lines were grown in vitro and analysed for HRG RNA expression by PCR.

[3] = system: BT474; experiment: Xenograft tumor growth inhibition by U3-1287, BT474; type: in vivo; settings: BT474 xenograft in mice, BC FISH + ve; tumor volumes vs control mice
Description: as §1

[4] = system: NC-H1975; experiment: Xenograft tumor growth inhibition by U3-1287, NC-H1975; type: in vivo; settings: NC-H1975 xenograft in mice, NSCLC; tumor volumes vs control mice
Description: as §1

[5] = system: CaOV3; experiment: Reduction of phospho-HER3 and phospho-AKT levels by Western blotting, CaOV3; type: cell-based, human; settings: CaOV3, no basal HER3 activation, stimulated with exogenous heregulin
Description: (§2) FIG. 14 depicts efficacy determined in vitro by measuring reduction of phospho-HER3 and phospho-AKT levels by Western blotting.
(§3) U3-1287 efficacy was determined in vitro by measuring reduction of phospho-HER3 and phospho-AKT levels.

[6] = system: A549; experiment: Reduction of phospho-HER3 and phospho-AKT levels by Western blotting, A549; type: cell-based, human; settings: A549, endogenously express heregulin
Description: as §2, §3

[7] = system: MKN-45; experiment: Xenograft tumor growth inhibition by U3-1287, MKN-45; type: in vivo; settings: MKN-45 xenograft in mice, Gastric; tumor volumes vs control mice
Description: as §1

[8] = system: HT-29; experiment: Xenograft tumor growth inhibition by U3-1287, HT-29; type: in vivo; settings: HT-29 xenograft in mice, Colon; tumor volumes vs control mice
Description: as §1

[9] = system: MCF-7; experiment: Xenograft tumor growth inhibition by U3-1287, MCF-7; type: in vivo; settings: MCF-7 xenograft in mice, BC FISH + ve; tumor volumes vs control mice
Description: as §1

[10] = system: A549; experiment: Xenograft tumor growth inhibition by U3-1287, A549; type: in vivo; settings: A549 xenograft in mice, NSCLC; tumor volumes vs control mice
Description: as §1

[11] = system: ZR75-1; experiment: Xenograft tumor growth inhibition by U3-1287, ZR75-1; type: in vivo; settings: ZR75-1 xenograft in mice, BC FISH + ve; tumor volumes vs control mice
Description: as §1

[12] = system: NCI-H441; experiment: Xenograft tumor growth inhibition by U3-1287, NCI-H441; type: in vivo; settings: NCI-H441 xenograft in mice, NSCLC; tumor volumes vs control mice
Description: as §1

[13] = system: HT-144; experiment: Xenograft tumor growth inhibition by U3-1287, HT-144; type: in vivo; settings: HT-144 xenograft in mice, Melanoma; tumor volumes vs control mice
Description: as §1

[14] = system: A375; experiment: Xenograft tumor growth inhibition by U3-1287, A375; type: in vivo; settings: A375 xenograft in mice, Melanoma; tumor volumes vs control mice
Description: as §1

[15] = system: FaDu; experiment: Xenograft tumor growth inhibition by U3-1287, FaDu; type: in vivo; settings: FaDu xenograft in mice, Head&Neck; tumor volumes vs control mice
Description: as §1

[16] = system: BxPC3; experiment: Xenograft tumor growth inhibition by U3-1287, BxPC3; type: in vivo; settings: BxPC3 xenograft in mice, Pancreas; tumor volumes vs control mice
Description: as §1

[17] = Phase 1 monotherapy study of patritumab
Description: A higher maintenance dose level of 18 mg/kg was also included to accommodate the possible effect of reduced tumor tissue penetration in the clinical setting relative to animal models.

[18] = system: Calu-3; experiment: Xenograft tumor growth inhibition by U3-1287, Calu-3; type: in vivo; settings: Calu-3 xenograft in mice, NSCLC; tumor volumes vs control mice
Description: as §1

[19] = system: MDA-MB453; experiment: Xenograft tumor growth inhibition by U3-1287, MDA-MB453; type: in vivo; settings: MDA-MB453 xenograft in mice, BC FISH + ve; tumor volumes vs control mice
Description: as §1

[20] = system: HCC 1569; experiment: Xenograft tumor growth inhibition by U3-1287, HCC 1569; type: in vivo; settings: HCC 1569 xenograft in mice, BC FISH + ve; tumor volumes vs control mice
Description: as §1

## patritumab: anti-HER3 antibody; U3-1287 corresponds to patritumab
[1]; BT474 HRG: exogenously added heregulin
  efficacy on HER3 phosphorylation: this could be overcome by exogenously added heregulin
[1]; BT474 basal: basal HER3 phosphorylation, no heregulin expression
  efficacy on HER3 phosphorylation: no efficacy
[2]
  In vivo efficacy (SA): No
[3]
  In vivo efficacy (SA): No
[4]
  In vivo efficacy (SA): Yes
[5]
  HER3 phosphorylation (phospho-HER3 and phospho-AKT levels): could be blocked
[6]
  Basal HER3 phosphorylation (phospho-HER3 and phospho-AKT levels): Basal HER3 phosphorylation could be blocked
[7]
  In vivo efficacy (SA): Yes
[8]
  In vivo efficacy (SA): Yes
[9]
  In vivo efficacy (SA): No
[10]
  In vivo efficacy (SA): Yes
[11]
  In vivo efficacy (SA): No
[12]
  In vivo efficacy (SA): No
[13]
  In vivo efficacy (SA): No
[14]
  In vivo efficacy (SA): No
[15]
  In vivo efficacy (SA): Yes
[16]
  In vivo efficacy (SA): Yes
[17]; Phase 1 study
  maximum tolerated dose: not reached
[17]; monotherapy Phase 1 study
  dose limiting toxicity: lack of dose limiting toxicity
[18]
  In vivo efficacy (SA): Yes
[19]
  In vivo efficacy (SA): No
[20]
  In vivo efficacy (SA): No
